Results published in US10842796B2, “Treatment of dementia” (WisTa Laboratories Ltd., priority 2016, dated 2020).
Like-named read-outs stand apart in the source and are kept apart here.

How the values were obtained:
[1] = compatibility of LMTM tablets with AD treatments (HPLC recovery of LMT and MT); type: physicochemical
Experimental: The effect of combining tablets of galantamine, memantine, donepezil or rivastigmine independently with LMTM was studied and LMTM was analysed in the resultant mixture.
One LMTM tablet (100 mg) was added to a degassed 200 ml amber volumetric flask along with one prescription dose of each of the test drugs, as indicated in the table below, and 100 ml of diluent (degassed 0.1% formic acid). Flasks were given an argon headspace and shaken on a wrist action shaker for 40 minutes at 250 oscillations/min. Samples were then diluted to the graduation mark with diluent, given an argon headspace and inverted to mix. Subsamples of the resulting solution were centrifuged at 13,000 rpm for 5 minutes to remove any undissolved excipients and the supernatant placed in an amber HPLC vial and injected into a high performance liquid chromatography (HPLC) system (Agilent 1260) to separate LMT and MT. LMT and MT peaks were identified by absorbance at 255 nm with retention times of 5.5 and 14 minutes, respectively (FIG. 11).

[2] = 14-day and 25-day repeat-dose studies in healthy volunteers (discoloration); type: in vivo, human; details: 4 mg BID lowest dose with comparable discoloration
[3] = test system: behavioural variant frontotemporal dementia (bvFTD); details: for ACE-R treatment effect mean (se) / FAQ treatment effect mean (se) / Fronto-temporal volume treatment effect mean (se): wrt 4 mg b.i.d. alone
Experimental: (1) Addenbrooke's Cognitive Examination—revised (ACE-R) and (2) Functional Activities Questionnaire [FAQ] or MRI (with Bonferroni Holme correction)
The effect of co-medication with symptomatic AD treatments which modify synaptic neurotransmission in the brain (acetylcholinesterase inhibitors or the NMDA antagonist “memantine”) was assessed. For brevity these treatments may be referred to as “AChEI/Mem” below.

[4] = test system: TDP-43 aggregates; details: 0.05 μM MT; SH-SYSY cells; cited from earlier work
[5] = 100 mg LMTM + 6 mg rivastigmine
[6] = 100 mg LMTM + 12 mg galantamine
[7] = 100 mg LMTM tablet, no addition, HPLC 255 nm
[8] = 4 mg b.i.d. versus 100 mg b.i.d.
[9] = ANCOVA model, 4 mg b.i.d. as add-on to AChEI/Mem
[10] = ANCOVA model, 100 mg b.i.d. alone
[11] = ANCOVA model, 100 mg b.i.d. as add-on to AChEI/Mem
[12] = MMRM model, 4 mg b.i.d. as add-on to AChEI/Mem
[13] = MMRM model, 100 mg b.i.d. alone
[14] = MMRM model, 100 mg b.i.d. as add-on to AChEI/Mem

CN(C)c1ccc2c(c1)Sc1cc(N(C)C)ccc1N2 [LMTM, leuco-methylthioninium bis(hydromethanesulfonate)]
LMT (% difference from control*) [1, 5]: 5.64%
LMT (area) [1, 5]: 23302.4 area
MT (% difference from control*) [1, 5]: 2.14%
MT (area) [1, 5]: 320.6 area
LMT (% difference from control*) ([1]; 100 mg LMTM + 10 mg donepezil): −2.58%
LMT (area) ([1]; 100 mg LMTM + 10 mg donepezil): 22058.4 area
MT (% difference from control*) ([1]; 100 mg LMTM + 10 mg donepezil): −6.58%
MT (area) ([1]; 100 mg LMTM + 10 mg donepezil): 313.9205 area
LMT (% difference from control*) ([1]; 100 mg LMTM + 10 mg memantine): 2.19%
LMT (area) ([1]; 100 mg LMTM + 10 mg memantine): 22642.3 area
MT (% difference from control*) ([1]; 100 mg LMTM + 10 mg memantine): 1.10%
MT (area) ([1]; 100 mg LMTM + 10 mg memantine): 336 area
LMT (% difference from control*) [1, 6]: −1.37%
LMT (area) [1, 6]: 22157.4 area
MT (% difference from control*) [1, 6]: −14.90%
MT (area) [1, 6]: 332.3 area
LMT (area) [1, 7]: 22465.7 area
MT (area) [1, 7]: 390.5473 area
amount of oxidised MT after mixing ([1]; after mixing with any of the AChEIs or memantine): not increased
LMTM found in the oxidised form ([1]; following HPLC analysis): Less than 2%
urine and stool discoloration [2]: associated with urine and stool discoloration
decline on ACE-R and MMSE compared with historical controls ([3]; 4 mg b.i.d. and 100 mg b.i.d.): significantly less than historical controls
ADCS-CGIC, FRS, MMSE, UPDRS (safety outcome) [3, 8]: no difference
primary analysis models for ACE-R, FAQ and Whole Brain Volume [3, 8]: no difference
12 m change in MMSE (decline), present study ([3]; 4 mg bd): 3.4 ± 0.5
12 month change in ACE-R (decline), present study ([3]; 4 mg bd): 10.4 ± 1.4
12 m change in MMSE (decline), present study ([3]; 100 mg bd): 3.0 ± 0.7
12 month change in ACE-R (decline), present study ([3]; 100 mg bd): 10.7 ± 1.4
ACE-R treatment effect mean (se) [3, 9]: 6.52 (2.42)
FAQ treatment effect mean (se) [3, 9]: 2.15 ± 1.21
Fronto-temporal volume treatment effect mean (se) [3, 9]: 356 (237)
ACE-R treatment effect mean (se) [3, 10]: 1.35 (1.71)
FAQ treatment effect mean (se) [3, 10]: −0.11 ± 0.87
Fronto-temporal volume treatment effect mean (se) [3, 10]: −98 (173)
ACE-R treatment effect mean (se) [3, 11]: 9.69 (2.73)
FAQ treatment effect mean (se) [3, 11]: 1.90 ± 1.37
Fronto-temporal volume treatment effect mean (se) [3, 11]: 481 (258)
ACE-R treatment effect mean (se) [3, 12]: 7.17 ± 3.25
FAQ treatment effect mean (se) [3, 12]: 2.08 ± 1.31
Fronto-temporal volume treatment effect mean (se) [3, 12]: 240 (291)
ACE-R treatment effect mean (se) [3, 13]: −1.12 ± 2.28
FAQ treatment effect mean (se) [3, 13]: −0.03 ± 0.92
Fronto-temporal volume treatment effect mean (se) [3, 13]: −4 (207)
ACE-R treatment effect mean (se) [3, 14]: 5.65 ± 3.57
FAQ treatment effect mean (se) [3, 14]: 2.36 ± 1.45
Fronto-temporal volume treatment effect mean (se) [3, 14]: 278 (313)
safety profile ([3]; data not shown): raised no major concerns
FAQ, MMSE and fronto-temporal volume, LMTM in combination with AD treatments versus LMTM alone ([3]; post hoc exploratory analyses): directionally supportive benefits
ACE-R, LMTM in combination with off-label AD treatments (AChEI/Mem) versus LMTM alone ([3]; post hoc exploratory analyses with AD-comedication status and severity as covariates): significant benefits

Methylthioninium [MT]
reduction of number of intracellular TDP-43 aggregates [4]: 50%
